In US6706509B2, “Oncoprotein protein kinase” (The Regents of the University of California, priority 1993, dated 2004):

How the values were obtained:
[1] = system: AP-1 responsive human collagenase promoter (-73Col-LUC); experiment: AP-1 transcriptional activity, -73Col-LUC luciferase reporter in Jurkat cells; assay type: cell-based; settings: for -73Col-LUC luciferase activity, two costimuli together: TPA+A23187 or anti-CD3+anti-CD28; for -73Col-LUC luciferase activity, agent administered alone: TPA 50 ng/ml or A23187 1 μg/ml, 9 hours
Procedure: T Ag Jurkat cells, a derivative of the human Jurkat T-cell line stably transfected with the SV40 large T antigen (a gift from Dr. G. Crabtree) were grown to 10^6/ml, then resuspended at 2×10^7/ml in fresh complete medium. 10^7 cells (0.5 ml) were mixed with reporter plasmids (5 μg, −79 jun-LUC; 10 μg, −73/+63 Col-LUC or −60/+63 Col-LUC; 5 μg IL2-LUC) at room temperature for 10 minutes, then electroporated at 250 V, 960 uF in a 0.4 cm cuvette using a Bio-Rad GenePulser. After electroporation, cells were immediately put on ice for 10 minutes, then resuspended in 10 ml complete medium for 24 hours before stimulation. 0.5 μg of pSRaIIc-Jun were used to transfect 10^7 Jurkat cells. Luciferase activity was determined as described (Deng and Karin, supra., 1993).
The effects of the different stimuli on AP-1 transcriptional activity in Jurkat cells were examined using a truncated, AP-1 responsive, human collagenase promoter (Angel, et al., Cell, 49:729-739, 1987) fused to the luciferase (LUC) reporter gene. Jurkat cells were transfected with 10 μg of either −73Col-LUC or −60Col-LUC reporter plasmids. 24 hours after transfection, the cells were aliquoted into 24 well plates and incubated for 9 hours with 50 ng/ml TPA, 1 μg/ml A23187 or 100 ng/ml CsA, either alone or in combinations, as indicated. The cells were harvested and luciferase activity was determined. The results shown are averages of three experiments done in triplicates.

ERK1 and ERK2 = ERK1 and ERK2 immunecomplex kinase assay with MBP substrate, Jurkat cells and mouse thymocytes; assay type: cell-based, human; mouse
Procedure: Exponentially growing cells were stimulated for the indicated times and hypotonic detergent cellular extracts were prepared as described (Hibi, et al., Genes and Dev., supra, 1993). The solid-state phosphorylation assay for measuring JNK activity was performed by incubated extracts with GSTcJun(1-223)-GSH agarose beads as described (Hibi, et al., supra., 1993) and as in Example 2. ERK1 and 2 activity was assayed by an immunecomplex kinase assay using MBP as a substrate (Minden, et al., Nature, 1993).
(§1) JNK is a proline-directed protein kinase activated by extracellular stimuli (Hibi, et al., supra, 1993). In that respect, it resembles the ERK1 and 2 MAP kinases (Boulton, et al., Cell, 65:663-675, 1991). Since ERK1 and 2 appear to be involved in induction of c-fos (Gille, et al., Nature, 358:414-417, 1992; Marais, et al., Cell, 73:381-393, 1993) and could thereby participate in T cell activation, their regulation was examined. ERK1 and ERK2 activities were measured in both Jurkat and mouse thymocytes using an immunecomplex kinase assay and myelin basic protein (MBP) as a substrate. Recombinant, kinase-defective ERK1 was also used a substrate for assaying MEK, the protein kinase responsible for activation of ERK1 and 2 (Crews, et al., Science, 258:478-480, 1992).
(§2) WCE (5 μg) of Jurkat (FIG. 15, panel A) or mouse thymocytes (panel C) were incubated with 1 μg of kinase-defective ERK1 in kinase buffer containing γ-^32P-ATP for 20 minutes. The phosphorylated proteins were separated by SDS-PAGE and the band corresponding to the mutant ERK1 is indicated. WCE (20 μg) of Jurkat (panel B) or mouse thymocytes (panel C) that were treated as described above were immunoprecipitated with anti-ERK antibodies (a gift from Dr. M. Weber). The immune complexes were washed and incubated in kinase buffer containing γ-^32P-ATP and 2 μg MBP for 15 minutes at 30° C. The phosphorylated proteins were separated by SDS-PAGE. The band corresponding to phosphorylated MBP is indicated.

MEK = MEK assay with kinase-defective ERK1 substrate, Jurkat cells and mouse thymocytes; assay type: cell-based, human; mouse
Procedure: as §1, §2

JNK = experiment: Solid-state phosphorylation assay of JNK in mouse thymocytes; assay type: cell-based
Procedure: Jurkat cells were grown in RPMI with 10% fetal calf serum (FCS), 1 mM […], 100 μ/ml penicillin (pen), 100 μg/ml streptomycin (strep) and 250 ng/ml amphotericin (complete medium). HeLa S3, CV-1 and FR3T3 cells were grown in DMEM supplemented with 10% FCS, 100 μ/ml pen, 100 μg/ml strep. All cells were cultured at 37° C. with 5% CO2. Mouse thymocytes were prepared from 8 week old Balb/C mice by gradient centrifugation on lymphocyte separation medium (Pharmacia). The lymphocytes were cultured for 5 hours at 37° C. in RPMI+10% FCS, prior to stimulation. Jurkat cells were labelled for 90 minutes with 0.5 mCi/ml ^32P-orthophosphate (ICN Radiochemicals) in medium lacking sodium phosphate. Labelled cells were treated with TPA (Sigma) and A23187 (Calbiochem) 1 μg/ml as indicated. When used, cyclosporin A (CsA) (Sandoz) 100 ng/ml in ethanol was added 10 minutes prior to cell stimulation. Following stimulation, the labelled cells were washed twice with ice-cold PBS then lysed with RIPA buffer (10 mM Tris pH 7.5, 150 mM NaCl, 2 mM EDTA, 1% Triton-X 100, 1% DOC, 0.1% SDS) supplemented with phosphatase inhibitors (20 mM β-glycerophosphate, 10 mM p-nitro-phenylphosphate, 1 mM Na3 VO4), and protease inhibitors (10 μg/ml leupeptin, aprotonin, pepstatin and 1 mM phenylmethyl sulfonylfluoride). c-Jun was immunoprecipitated as described (Binetruy, et al., supra., 1992) and analyzed by SDS-PAGE, followed by peptide mapping (Boyle, et al., Cell, 64:573-584, 1991; Lin, et al. Cell, 70:777-789, 1992). Ha-Ras was immunoprecipitated with Y13-259. Ha-Ras bound nucleotides were extracted and analyzed as described by Satoh, et al., (Proc. Natl. Acad. Sci., USA, 15:5993-5997, 1990).
We examined whether elevated intracellular Ca^++ affects JNK activation in other cells. […] Cultures of FR3T3, CV-1, PC12 and mouse thymocytes were incubated for 15 minutes in the presence of TPA (50 ng/ml, T), A23817 (1 μg/ml, A) and/or CsA (100 ng/ml), as indicated. […] After washing, JNK activity was determined by solid-state phosphorylation assay as described above.

[2] = Jurkat cells or mouse thymocytes

Compound	-73Col-LUC luciferase activity, two costimuli together [1]	effect on induction of -73Col-LUC ([1]; CsA 100 ng/ml with TPA+A23187, 9 hours)	ERK activity, effect of A23187 or CsA (ERK1 and ERK2)	MEK activity, effect of A23187 or CsA (MEK)	JNK activity, CsA added to TPA+A23187 (JNK; CsA 100 ng/ml)	-73Col-LUC luciferase activity, agent administered alone [1]	JNK activity, costimulation with TPA (JNK; A23187 1 μg/ml plus TPA)	ERK activity, TPA treatment (ERK1 and ERK2; [2])	MEK activity, TPA treatment (MEK; [2])	JNK activity, TPA alone (JNK; TPA 50 ng/ml, 15 minutes)
anti-CD3: anti-CD3 monoclonal antibody OKT3	synergistic activation									
cyclosporin A [CsA]		inhibited	had no effect on either activity	had no effect on either activity	inhibited					
CNc1ccc2oc(C[C@H]3O[C@@]4(CC[C@H]3C)O[C@H]([C@H](C)C(=O)c3ccc[nH]3)[C@H](C)C[C@H]4C)nc2c1C(=O)O [A23187]	synergistic activation		had no effect on either activity	had no effect on either activity		marginal effects	enhanced			
CCCCCCCCCCCCCC(=O)O[C@@H]1[C@@H](C)[C@@]2(O)[C@@H](C=C(CO)C[C@]3(O)C(=O)C(C)=C[C@@H]23)[C@H]2C(C)(C)[C@]12OC(C)=O [TPA]	synergistic activation					marginal effects		fully stimulated	fully stimulated	moderate increase in JNK activity
